The values that follow come from patent US20050227989A1, “Polycyclic thiazoles as potassium ion channel modulators” (ICAgen, Inc., priority 2004, published 2005).

Each structure is given as a SMILES string. Where only a bound is given, the exact number is not on record here.

The first test concerns the target hSK2 (Homo sapiens, UniProt Q9H2S1). The test is described as follows: 86Rb+ efflux assay for compound activity towards hSK channels. The class given is cell-based. The settings on record: 86Rb+ efflux stimulated with calcium ionophore; drug 0.01 to 30 μM in EBSS; read-out: hSK2 Inhibitory Activity.
Turning to `O=C1CCCN1c1ccc(Nc2nc(-c3cnccn3)cs2)nc1` [1-[6-(4-Pyrazin-2-yl-thiazol-2-ylamino)-pyridin-3-yl]-pyrrolidin-2-one], the IC50 is less than 30 nM.
As for `O=C1CCCN1c1ccc(Nc2nc(-c3nccs3)cs2)nc1` [1-[6-([2,4′]Bithiazolyl-2′-ylamino)-pyridin-3-yl]-pyrrolidin-2-one], the IC50 fell in the range of 30 to 100 nM.
Consider `CN1CCN(c2ccc(Nc3nc(-c4cnccn4)cs3)nc2)C(=O)C1` [4-Methyl-1-[6-(4-pyrazin-2-yl-thiazol-2-ylamino)-pyridin-3-yl]-piperazin-2-one], for which the IC50 lay in the range of 1000 to 30000 nM.
On to `CN1CCN(c2ccc(Nc3nc(-c4ccccn4)cs3)nc2)C(=O)C1` [4-Methyl-1-[6-(4-pyridin-2-yl-thiazol-2-ylamino)-pyridin-3-yl]-piperazin-2-one], for which the IC50 is 1000 to 30000 nM.
For the compound `COC(=O)c1ccc(Nc2nc(-c3ccccn3)cs2)nc1` [6-(4-Pyridin-2-yl-thiazol-2-ylamino)-nicotinic acid methyl ester], the IC50 was in the range of 1000 to 30000 nM.
For `c1ccc(-c2csc(Nc3nc4ccccc4[nH]3)n2)nc1` [(1H-Benzoimidazol-2-yl)-(4-pyridin-2-yl-thiazol-2-yl)-amine], the IC50 was 100 to 1000 nM.
The same measure, in the same setting: the figure for `Cc1cnc(Nc2nc(-c3ccccn3)cs2)c(Br)c1` [(3-Bromo-5-methyl-pyridin-2-yl)-(4-pyridin-2-yl-thiazol-2-yl)-amine] is 1000 to 30000 nM.
For the compound `Cc1cc(C)nc(Nc2nc(-c3ccccn3)cs2)c1` [(4,6-Dimethyl-pyridin-2-yl)-(4-pyridin-2-yl-thiazol-2-yl)-amine], the IC50 lay within 1000 to 30000 nM.
As to `CC1CCN(c2ccc(Nc3nc(-c4ccccn4)cs3)nc2)CC1` [(4-Methyl-3,4,5,6-tetrahydro-2H-[1,3′]bipyridinyl-6′-yl)-(4-pyridin-2-yl-thiazol-2-yl)-amine], the IC50 is 30 to 100 nM.
For `Cc1ccnc(Nc2nc(-c3cnccn3)cs2)c1` [(4-Methyl-pyridin-2-yl)-(4-pyrazin-2-yl-thiazol-2-yl)-amine], the IC50 fell in the range of 30 to 100 nM.
With `Cc1ccnc(Nc2nc(-c3cc(C)ccn3)cs2)c1` [(4-Methyl-pyridin-2-yl)-[4-(4-methyl-pyridin-2-yl)-thiazol-2-yl]-amine], the IC50 lay within 30 to 100 nM.
As to `FC(F)(F)c1ccc(Nc2nc(-c3ccccn3)cs2)nc1` [(4-Pyridin-2-yl-thiazol-2-yl)-(5-trifluoromethyl-pyridin-2-yl)-amine], the IC50 was in the range of 1000 to 30000 nM.
Still for that read-out and setting: the figure for `c1ccc(-c2csc(Nc3nccs3)n2)nc1` [(4-Pyridin-2-yl-thiazol-2-yl)-thiazol-2-yl-amine] is 1000 to 30000 nM; for `Brc1sc(Nc2ccccn2)nc1-c1ccccn1` [(5-Bromo-4-pyridin-2-yl-thiazol-2-yl)-pyridin-2-yl-amine] it is 1000 to 30000 nM; for `Brc1ccc(Nc2nc(-c3ccccn3)cs2)nc1` [(5-Bromo-pyridin-2-yl)-(4-pyridin-2-yl-thiazol-2-yl)-amine] it is 1000 to 30000 nM.
Take `Cc1ccnc(Nc2nc(-c3ccccn3)c(Cl)s2)c1` [(5-Chloro-4-pyridin-2-yl-thiazol-2-yl)-(4-methyl-pyridin-2-yl)-amine]: the IC50 is 100 to 1000 nM.
On the same count and under the same terms, the figure for `Fc1ccc(Nc2nc(-c3ccccn3)cs2)nc1` [(5-Fluoro-pyridin-2-yl)-(4-pyridin-2-yl-thiazol-2-yl)-amine] is 1000 to 30000 nM; for `CCCCCCc1ccc(Nc2nc(-c3ccccn3)cs2)nc1` [(5-Hexyl-pyridin-2-yl)-(4-pyridin-2-yl-thiazol-2-yl)-amine] it is 1000 to 30000 nM.
Turning to `Cc1cc(I)cnc1Nc1nc(-c2ccccn2)cs1` [(5-Iodo-3-methyl-pyridin-2-yl)-(4-pyridin-2-yl-thiazol-2-yl)-amine], the IC50 lay within 100 to 1000 nM.
`Cc1cc(Nc2nc(-c3ccccn3)cs2)ncc1I` [(5-Iodo-4-methyl-pyridin-2-yl)-(4-pyridin-2-yl-thiazol-2-yl)-amine]: the IC50 is 100 to 1000 nM.
`C=C(C)c1ccc(Nc2nc(-c3cnccn3)cs2)nc1` [(5-Isopropenyl-pyridin-2-yl)-(4-pyrazin-2-yl-thiazol-2-yl)-amine]: the IC50 was 100 to 1000 nM.
Consider `CC(C)c1ccc(Nc2nc(-c3cnccn3)cs2)nc1` [(5-Isopropyl-pyridin-2-yl)-(4-pyrazin-2-yl-thiazol-2-yl)-amine], for which the IC50 is 1000 to 30000 nM.
As to `CC(C)c1ccc(Nc2nc(-c3ccccn3)cs2)nc1` [(5-Isopropyl-pyridin-2-yl)-(4-pyridin-2-yl-thiazol-2-yl)-amine], the IC50 lay in the range of 30 to 100 nM.
For the compound `COc1sc(Nc2ccccn2)nc1-c1ccccn1` [(5-Methoxy-4-pyridin-2-yl-thiazol-2-yl)-pyridin-2-yl-amine], the IC50 lay in the range of 1000 to 30000 nM.
The same measure, in the same setting: the figure for `Cc1sc(Nc2ccccn2)nc1-c1ccccn1` [(5-Methyl-4-pyridin-2-yl-thiazol-2-yl)-pyridin-2-yl-amine] is less than 30 nM; for `Cc1ccc(Nc2nc(-c3cnccn3)cs2)nc1` [(5-Methyl-pyridin-2-yl)-(4-pyrazin-2-yl-thiazol-2-yl)-amine] it is 30 to 100 nM; for `CSc1sc(Nc2ccccn2)nc1-c1ccccn1` [(5-Methylsulfanyl-4-pyridin-2-yl-thiazol-2-yl)-pyridin-2-yl-amine] it is 1000 to 30000 nM.
In the case of `c1ccc(-c2csc(Nc3ccc(N4CCOCC4)cn3)n2)nc1` [(5-Morpholin-4-yl-pyridin-2-yl)-(4-pyridin-2-yl-thiazol-2-yl)-amine], the IC50 lay in the range of 30 to 100 nM.
Turning to `c1ccc(-c2ccc(Nc3nc(-c4ccccn4)cs3)nc2)cc1` [(5-Phenyl-pyridin-2-yl)-(4-pyridin-2-yl-thiazol-2-yl)-amine], the IC50 was 1000 to 30000 nM.
As for `CC(C)(C)c1ccc(Nc2nc(-c3ccccn3)cs2)nc1` [(5-tert-Butyl-pyridin-2-yl)-(4-pyridin-2-yl-thiazol-2-yl)-amine], the IC50 lay within 1000 to 30000 nM.
`c1ccc(Nc2csc(Nc3ccccn3)n2)nc1` [N^2,N^4-Di-pyridin-2-yl-thiazole-2,4-diamine]: the IC50 fell in the range of 1000 to 30000 nM.
Take `Nc1ccc(Nc2nc(-c3nccs3)cs2)nc1` [N^2-[2,4′]Bithiazolyl-2′-yl-pyridine-2,5-diamine]: the IC50 lay within 30 to 100 nM.
With `c1ccc(Nc2nc(-c3ccccn3)cs2)nc1` [Pyridin-2-yl-(4-pyridin-2-yl-thiazol-2-yl)-amine], the IC50 was less than 30 nM.
In the case of `c1ccc(Nc2nc(-c3cccs3)cs2)nc1` [Pyridin-2-yl-(4-thiophen-2-yl-thiazol-2-yl)-amine], the IC50 fell in the range of 1000 to 30000 nM.
Consider `Cc1ccnc(Nc2nc(-c3nccs3)cs2)c1` [[2,4′]Bithiazolyl-2′-yl-(4-methyl-pyridin-2-yl)-amine], for which the IC50 fell in the range of 100 to 1000 nM.
As for `Brc1ccc(Nc2nc(-c3nccs3)cs2)nc1` [[2,4′]Bithiazolyl-2′-yl-(5-bromo-pyridin-2-yl)-amine], the IC50 is 1000 to 30000 nM.
As to `Clc1ccc(Nc2nc(-c3nccs3)cs2)nc1` [[2,4′]Bithiazolyl-2′-yl-(5-chloro-pyridin-2-yl)-amine], the IC50 lay within 1000 to 30000 nM.
Consider `C=C(C)c1ccc(Nc2nc(-c3nccs3)cs2)nc1` [[2,4′]Bithiazolyl-2′-yl-(5-isopropenyl-pyridin-2-yl)-amine], for which the IC50 lay in the range of 1000 to 30000 nM.
In the case of `CC(C)c1ccc(Nc2nc(-c3nccs3)cs2)nc1` [[2,4′]Bithiazolyl-2′-yl-(5-isopropyl-pyridin-2-yl)-amine], the IC50 was in the range of 1000 to 30000 nM.

The test is the same for the next values; noted with them: read-out: hSK2 Inhibitory Activity.
Consider `c1ccc(-c2csc(Nc3ncccn3)n2)nc1` [(4-Pyridin-2-yl-thiazol-2-yl)-pyrimidin-2-yl-amine], for which the IC50 was in the range of 1000 to 30000 nM.
